In patent publication US9546164B2 (GENENTECH, INC., priority 2013, dated 2017) one finds IC50 data, which are given here for 29 compounds.

SMILES strings stand for the structures. Where a name gives a salt, the structure may show the parent alone.

In one assay the target is hNav1.7 (Homo sapiens (Human), UniProt Q15858). Description: Tritiated sulfonamide competitive binding to membranes from cells expressing hNav1.7 and the β1 subunit.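 Further: Filter-bound radioactivity counted by liquid scintillation, nonspecific binding defined with excess unlabelled ligand, IC50 fitted to percent inhibition of specific binding.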
Sequence of hNav1.7 (Q15858 other isoform, or with tags, fused parts or gaps): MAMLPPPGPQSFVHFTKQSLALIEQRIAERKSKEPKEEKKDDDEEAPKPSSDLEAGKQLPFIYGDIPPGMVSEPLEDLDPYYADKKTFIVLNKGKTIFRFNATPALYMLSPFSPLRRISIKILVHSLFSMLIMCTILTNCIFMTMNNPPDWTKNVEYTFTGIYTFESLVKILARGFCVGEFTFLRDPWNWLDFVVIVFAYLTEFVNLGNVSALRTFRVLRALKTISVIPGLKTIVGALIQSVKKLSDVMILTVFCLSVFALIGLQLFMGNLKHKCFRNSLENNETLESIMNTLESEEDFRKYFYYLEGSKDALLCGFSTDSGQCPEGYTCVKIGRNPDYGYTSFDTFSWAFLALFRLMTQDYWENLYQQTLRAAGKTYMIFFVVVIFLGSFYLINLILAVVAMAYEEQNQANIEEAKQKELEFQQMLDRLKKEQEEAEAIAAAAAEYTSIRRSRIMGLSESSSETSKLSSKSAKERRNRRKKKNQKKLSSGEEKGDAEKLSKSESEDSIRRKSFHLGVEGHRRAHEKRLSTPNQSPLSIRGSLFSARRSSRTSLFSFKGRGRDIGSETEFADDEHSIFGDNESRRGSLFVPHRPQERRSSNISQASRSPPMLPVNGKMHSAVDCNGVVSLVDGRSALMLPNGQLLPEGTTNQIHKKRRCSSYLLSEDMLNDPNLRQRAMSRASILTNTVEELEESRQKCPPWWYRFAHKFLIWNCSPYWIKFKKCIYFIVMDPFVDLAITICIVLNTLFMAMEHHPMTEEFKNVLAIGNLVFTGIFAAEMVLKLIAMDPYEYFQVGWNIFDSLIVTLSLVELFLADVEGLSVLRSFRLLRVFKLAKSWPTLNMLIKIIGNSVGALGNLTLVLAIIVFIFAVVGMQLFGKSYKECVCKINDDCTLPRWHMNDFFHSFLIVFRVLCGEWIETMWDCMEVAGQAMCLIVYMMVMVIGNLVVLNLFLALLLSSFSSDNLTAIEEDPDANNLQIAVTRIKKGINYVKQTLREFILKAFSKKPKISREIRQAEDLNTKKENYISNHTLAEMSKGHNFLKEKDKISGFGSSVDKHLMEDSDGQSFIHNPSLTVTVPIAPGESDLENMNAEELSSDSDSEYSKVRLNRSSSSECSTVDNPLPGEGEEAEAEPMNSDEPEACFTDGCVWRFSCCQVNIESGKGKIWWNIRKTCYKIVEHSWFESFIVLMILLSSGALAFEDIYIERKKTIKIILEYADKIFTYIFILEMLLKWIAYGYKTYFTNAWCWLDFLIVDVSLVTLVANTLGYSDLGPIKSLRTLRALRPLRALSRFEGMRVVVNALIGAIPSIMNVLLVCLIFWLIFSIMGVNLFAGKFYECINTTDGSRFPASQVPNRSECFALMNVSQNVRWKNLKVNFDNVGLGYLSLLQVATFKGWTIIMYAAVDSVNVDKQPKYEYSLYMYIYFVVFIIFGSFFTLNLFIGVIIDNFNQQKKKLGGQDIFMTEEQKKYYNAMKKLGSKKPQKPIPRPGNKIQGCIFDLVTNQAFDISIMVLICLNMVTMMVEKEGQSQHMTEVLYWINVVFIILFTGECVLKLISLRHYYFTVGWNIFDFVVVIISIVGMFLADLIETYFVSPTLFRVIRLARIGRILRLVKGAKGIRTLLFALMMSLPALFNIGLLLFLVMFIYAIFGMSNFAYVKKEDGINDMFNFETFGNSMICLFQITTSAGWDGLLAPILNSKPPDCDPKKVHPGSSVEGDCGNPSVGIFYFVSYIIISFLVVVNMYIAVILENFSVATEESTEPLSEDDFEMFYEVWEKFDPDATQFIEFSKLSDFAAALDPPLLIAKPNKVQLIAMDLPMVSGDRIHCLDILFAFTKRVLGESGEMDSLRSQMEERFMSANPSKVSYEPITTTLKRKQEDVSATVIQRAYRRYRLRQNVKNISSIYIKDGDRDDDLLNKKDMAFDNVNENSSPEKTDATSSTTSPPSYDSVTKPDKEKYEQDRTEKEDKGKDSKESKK
Sequence of hNav1.7 (Q07699 19-218 partner): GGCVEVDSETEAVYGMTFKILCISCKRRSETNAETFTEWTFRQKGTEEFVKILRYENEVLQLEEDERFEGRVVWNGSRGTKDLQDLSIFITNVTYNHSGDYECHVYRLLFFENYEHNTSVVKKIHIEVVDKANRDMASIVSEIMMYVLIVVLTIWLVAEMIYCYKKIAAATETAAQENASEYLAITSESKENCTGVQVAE
Conditions: not given
`O=C(NS(=O)(=O)C1CC1)c1cc(C2CC2)c(O[C@@H]2CCCN(Cc3ccc(F)cc3Cl)C2)cc1F` [Example 7, (R)-4-((1-(2-chloro-4-fluorobenzyl)piperidin-3-yl)oxy)-5-cyclopropyl-N-(cyclopropylsulfonyl)-2-fluorobenzamide] registered an IC50 of 3.5 nM.

In turn, `CS(=O)(=O)NC(=O)c1cc(C2CC2)c(CN2CCC(S(=O)(=O)c3cc(Cl)cc(Cl)c3)CC2)cc1F` [Example 532, 5-cyclopropyl-4-((4-((3,5-dichlorophenyl)sulfonyl)piperidin-1-yl)methyl)-2-fluoro-N-(methylsulfonyl)benzamide, trifluoroacetic acid salt] showed an IC50 of 220 nM.

As for `O=C(NS(=O)(=O)C1CC1)c1cc(C2CC2)c(CN2CCC(Oc3ncc(C(F)(F)F)cc3Cl)CC2)cc1F` [Example 524, 4-((4-((3-chloro-5-(trifluoromethyl)pyridin-2-yl)oxy)piperidin-1-yl)methyl)-5-cyclopropyl-N-(cyclopropylsulfonyl)-2-fluorobenzamide, trifluoroacetic acid salt], the IC50 is 11.4 nM.

As to `O=C(NS(=O)(=O)N1CCC1)c1cc(C2CC2)c(O[C@@H]2CCCN(Cc3cc(Cl)cc(Cl)c3)C2)cc1F` [Example 5, (R)—N-(azetidin-1-ylsulfonyl)-5-cyclopropyl-4-((1-(3,5-dichlorobenzyl)piperidin-3-yl)oxy)-2-fluoroenzamide], the IC50 is 7.1 nM.

Turning to `CS(=O)(=O)NC(=O)c1cc(C2CC2)c(CN2CCC(Oc3ncc(C(F)(F)F)cc3Cl)CC2)cc1F` [Example 523, 4-((4-((3-chloro-5-(trifluoromethyl)pyridin-2-yl)oxy)piperidin-1-yl)methyl)-5-cyclopropyl-2-fluoro-N-(methylsulfonyl)benzamide, trifluoroacetic acid salt], the IC50 turned out to be 5.8 nM.

With `Cn1nc(-c2ccccc2)cc1CN1CCC[C@@H](Oc2cc(F)c(C(=O)NS(C)(=O)=O)cc2C2CC2)C1` [Example 12, (R)-5-cyclopropyl-2-fluoro-4-((1-((1-methyl-3-phenyl-1H-pyrazol-5-yl)methyl)piperidin-3-yl)oxy)-N-(methylsulfonyl)benzamide], the IC50 came out at 11.3 nM.

Still in this assay, the particulars now being: read-out: Ligand Binding Assay; 100 pM [3H]compound, membranes with hNav1.7 and β1 subunit, 18 h, room temperature.
Turning to `CS(=O)(=O)NC(=O)c1cc(C2CC2)c(OCC2CN(Cc3ccc(C(F)(F)F)c(F)c3)C2)cc1F` [Example 76, 5-cyclopropyl-2-fluoro-4-((1-(3-fluoro-4-(trifluoromethyl)benzyl)azetidin-3-yl)methoxy)-N-(methylsulfonyl)benzamide], the IC50 came to 42 nM.

On to `CS(=O)(=O)NC(=O)c1cc(C2CC2)c(O[C@@H]2CCCN(Cc3cccc(C(F)(F)F)c3)C2)cc1F` [Example 319, (R)-5-cyclopropyl-2-fluoro-N-(methylsulfonyl)-4-((1-(3-(trifluoromethyl)benzyl)piperidin-3-yl)oxy)benzamide], for which the IC50 is 5.4 nM.

As for `COC[C@@H](c1ccc(Cl)cc1Cl)N1CCC(COc2cc(F)c(C(=O)NS(C)(=O)=O)cc2C2CC2)CC1` [Example 283, (R)-5-cyclopropyl-4-((1-(1-(2,4-dichlorophenyl)-2-methoxyethyl)piperidin-4-yl)methoxy)-2-fluoro-N-(methylsulfonyl)benzamide], the IC50 worked out at 4 nM.

As for `C[C@H](c1ccc(F)cc1Cl)N1CCC[C@@H](Oc2cc(F)c(C(=O)NS(C)(=O)=O)cc2C2CC2)C1` [Example 296, 4-(((R)-1-((R)-1-(2-chloro-4-fluorophenyl)ethyl)piperidin-3-yl)oxy)-5-cyclopropyl-2-fluoro-N-(methylsulfonyl)benzamide], the IC50 amounted to 8.1 nM.

`N#Cc1cc(C(=O)NS(=O)(=O)C2CC2)c(F)cc1OCC1CCN(Cc2cc(Cl)cc(OC(F)(F)F)c2)CC1` [Example 409, 4-((1-(3-chloro-5-(trifluoromethoxy)benzyl)piperidin-4-yl)methoxy)-5-cyano-N-(cyclopropylsulfonyl)-2-fluorobenzamide, trifluoroacetic acid salt]: the IC50 is 54 nM.

For the compound `O=C(NS(=O)(=O)C1CC1)c1cc(C2CC2)c(OCC2CCN(C(=O)c3ccc(Cl)c(Cl)c3)CC2)cc1F` [Example 233, 5-Cyclopropyl-N-(cyclopropylsulfonyl)-4-((1-(3,4-dichlorobenzoyl)piperidin-4-yl)methoxy)-2-fluorobenzamide], the IC50 turned out to be 31 nM.

In the case of `O=C(NS(=O)(=O)C1CC1)c1cc(C2CC2)c(OC[C@@H]2C[C@H]3CC[C@@H](C2)N3Cc2cc(C(F)(F)F)cc(Cl)c2F)cc1F` [Example 396, 4-(((1R,3S,5S)-8-(3-chloro-2-fluoro-5-(trifluoromethyl)benzyl)-8-azabicyclo-[3.2.1]octan-3-yl)methoxy)-5-cyclopropyl-N-(cyclopropylsulfonyl)-2-fluorobenzamide, trifluoroacetic acid salt], the IC50 was found to be 14.8 nM.

On to `O=C(NS(=O)(=O)N1CCC1)c1cc(C2CC2)c(OCC2CCN(c3ccccc3)CC2)cc1F` [Example 291, N-(azetidin-1-ylsulfonyl)-5-cyclopropyl-2-fluoro-4-((1-phenylpiperidin-4-yl)methoxy)benzamide], for which the IC50 was found to be 11 nM.

In the case of `C[C@@H](c1cc(Cl)cc(Cl)c1)N1CCC(F)(COc2cc(F)c(C(=O)NS(C)(=O)=O)cc2C2CC2)CC1` [Example 349, (S)-5-cyclopropyl-4-((1-(1-(3,5-dichlorophenyl)ethyl)-4-fluoropiperidin-4-yl)methoxy)-2-fluoro-N-(methylsulfonyl)benzamide, trifluoroacetic acid salt], the IC50 amounted to 4 nM.

For the compound `C[C@H](c1ccc(Cl)c(Cl)c1)N1CCC(COc2cc(F)c(C(=O)NS(C)(=O)=O)cc2C2CC2)CC1` (single isomer, unassigned) [Example 214], the IC50 is 3.1 nM.

On to `CC1(COc2cc(F)c(C(=O)NS(=O)(=O)C3CC3)cc2C2CC2)CN(C(c2ccccc2)c2ccccc2)C1` [Example 70, 4-((1-benzhydryl-3-methylazetidin-3-yl)methoxy)-5-cyclopropyl-N-(cyclopropylsulfonyl)-2-fluorobenzamide], for which the IC50 came to 6 nM.

Consider `CS(=O)(=O)NC(=O)c1cc(C2CC2)c(OCC2CCN(c3cc(C(F)(F)F)c(Cl)cn3)CC2)cc1F` [Example 554, 4-((1-(5-chloro-4-(trifluoromethyl)pyridin-2-yl)piperidin-4-yl)methoxy)-5-cyclopropyl-2-fluoro-N-(methylsulfonyl)benzamide], for which the IC50 came out at 3.2 nM.

Consider `C[C@@H](c1cc(Cl)cc(Cl)c1)N1CCC(COc2cc(F)c(C(=O)NS(=O)(=O)C3CC3)cc2Cl)CC1` [Example 403, (S)-5-chloro-N-(cyclopropylsulfonyl)-4-((1-(1-(3,5-dichlorophenyl)ethyl)piperidin-4-yl)methoxy)-2-fluorobenzamide, trifluoroacetic acid salt], for which the IC50 is 17 nM.

Take `CS(=O)(=O)NC(=O)c1cc(C2CC2)c(OCC2CCN(Cc3cc(F)c(Br)cc3F)CC2)cc1F` [Example 588, 4-((1-(4-bromo-2,5-difluorobenzyl)piperidin-4-yl)methoxy)-5-cyclopropyl-2-fluoro-N-(methylsulfonyl)benzamide]: the IC50 came to 6.9 nM.

With `CS(=O)(=O)NC(=O)c1cc(C2CC2)c(OCC2CCN(C(c3ccc(F)cc3Cl)C(F)(F)F)CC2)cc1F` (centres unmarked) [Example 300, 4-((1-(1-(2-chloro-4-fluorophenyl)-2,2,2-trifluoroethyl)piperidin-4-yl)methoxy)-5-cyclopropyl-2-fluoro-N-(methylsulfonyl)benzamide], the IC50 came out at 1.6 nM.

For the compound `CS(=O)(=O)NC(=O)c1cc(C2CC2)c(OCC2CCN(Cc3nc(-c4ccccc4Cl)no3)CC2)cc1F` [Example 410, 4-((1-((3-(2-chlorophenyl)-1,2,4-oxadiazol-5-yl)methyl)piperidin-4-yl)methoxy)-5-cyclopropyl-2-fluoro-N-(methylsulfonyl)benzamide, trifluoroacetic acid salt], the IC50 is 10.9 nM.

In the case of `COC(C)(C)[C@@H](c1cc(Cl)cc(Cl)c1)N1CCC(COc2cc(F)c(C(=O)NS(C)(=O)=O)cc2C2CC2)CC1` (single isomer, unassigned) [Example 205], the IC50 came to 2.5 nM.

`C[C@@H](c1cc(Cl)cc(Cl)c1)N1CC(C)(COc2cc(F)c(C(=O)NS(C)(=O)=O)cc2C2CC2)C1` (single isomer, unassigned) [Example 186]: the IC50 is 4 nM.

With `CS(=O)(=O)NC(=O)c1cc(C2CC2)c(OCC2CCN(S(=O)(=O)c3ccc(OC(F)(F)F)cc3)CC2)cc1F` [Example 378, 5-cyclopropyl-2-fluoro-N-(methylsulfonyl)-4-((1-((4-(trifluoromethoxy)phenyl)sulfonyl)piperidin-4-yl)methoxy)benzamide], the IC50 was 45.9 nM.

As for `CC1(COc2cc(F)c(C(=O)NS(=O)(=O)C3CC3)cc2C2CC2)CN(c2ccc(C(F)(F)F)cn2)C1` [Example 488, 5-cyclopropyl-N-(cyclopropylsulfonyl)-2-fluoro-4-((3-methyl-1-(5-(trifluoromethyl)pyridin-2-yl)azetidin-2-3-yl)methoxy)benzamide, trifluoroacetic acid salt], the IC50 is 9.2 nM.

`C[C@@H](c1ccc(Cl)cc1Cl)N1CCC(COc2cc(F)c(C(=O)NS(C)(=O)=O)cc2C2CC2)CC1` [Example 238, (S)-5-cyclopropyl-4-((1-(1-(2,4-dichlorophenyl)ethyl)piperidin-4-yl)methoxy)-2-fluoro-N-(methylsulfonyl)benzamide]: the IC50 was found to be 2.2 nM.

Turning to `O=C(NS(=O)(=O)N1CCC1)c1cc(Cl)c(OCC2CCN(Cc3cc(Cl)cc(OC(F)(F)F)c3)CC2)cc1F` [Example 408, N-(azetidin-1-ylfulfonyl)-5-chloro-4-((1-(3-chloro-5-(trifluoromethoxy)benzyl)piperidin-4-yl)methoxy)-2-fluorobenzamide, trifluoroacetic acid suit], the IC50 amounted to 22.7 nM.

Still in this assay, the particulars now being: read-out: Ligand Binding Assay; 100 pM [3H]compound, membranes with hNav1.7 and β1 subunit, 18 h, room temperature; trifluoroacetic acid salt.
Turning to `O=C(NS(=O)(=O)C1CC1)c1cc(C2CC2)c(CN2CCC(Oc3ccc(F)cc3Cl)CC2)cc1F` [Example 507, trifluoroacetic acid salt], the IC50 turned out to be 81.7 nM.
